{"source": "patent US20250161419A1", "about": "“SERPIN PEPTIDES AND METHODS OF USING THE SAME” (SERPIN PHARMA, LLC, priority 2022, published 2025)", "key": {"IL-4": {"system": "IL-4", "assay": "MC903 AD model, IL-4 in ear lysate by ELISA", "type": "in vivo, mouse", "conditions": "topical, vs MC903", "experimental": "(§1) Mice were treated with SP16 in 70% EtOH (MC903+SP16) or drug vehicle (MC903). Normal control (NC) mice were treated with EtOH only. Ears were measured for PAR2 protein expression through western blot analysis (quantitative analysis after normalization to beta-actin shown) (n=3-5). TSLP was measured in both the ears and serum by ELISA (N=3-5). Scratching was assessed over a 3 minute period after a 5-minute acclimatization period and the number of scratches are shown (n=3). IL-4 was measured in ear lysate via ELISA (N=3-5)."}, "phospho-ERK1/2": {"system": "phospho-ERK1/2", "assay": "Cell signaling analysis in PC12 cells, immunoblot of phospho-ERK1/2", "type": "cell-based, rat", "experimental": "Cell signaling analysis: Rat PC12 cells were purchased from ATCC (CRL-1721). PC12 cells were maintained in high glucose DMEM (Gibco, USA) containing 10% heat-inactivated FBS (Gibco, USA), 5% HyClone heat-inactivated horse serum (Cytiva, USA), penicillin (100 units/ml) and streptomycin ([…]) in 6-well plates that were pre-coated with 0.01 mg/ml type IV collagen (Sigma-Aldrich, St. Louis, MO, USA). Cells were transferred to serum-free medium (SFM) 4 h prior to adding effectors, and then treated with SP163M (2.4, 24 or 240 nM); EI-tPA (12 nM), NGF (0.36 nM), or vehicle (PBS) for 10 min. In some cases, cells were pre-incubated with the competitive antagonist of LRP1, GST-RAP (150 nM) for 15 min or electroporated using the Rat Neuron Nucleofector Amaxa Kit (Lonza Biosciences) and incubated with siRNA to silence LRP1 expression (siLRP1; M-094191-01-0010, Dharmacon) for 48 h. Control cells were transfected with non-targeting control (NTC) siRNA (NTC; D-001810-10-05, Dharmacon). Cells were rinsed with ice-cold PBS and proteins were extracted in RIPA buffer (20 mM sodium phosphate, 150 mM NaCl, pH 7.4, 1% Triton X-100, 0.5% sodium deoxycholate, 0.1% SDS) supplemented with protease and phosphatase inhibitors (Roche Diagnostics, USA). After 30 min on ice, lysates were centrifuged at 15000×g for 5 min, supernatant collected and stored at −20° C. Equal amounts of protein from cell lysates (20 μg), as determined by BCA Protein Assay (ThermoFisher Scientific, Waltham, MA, USA), were subjected to 10% SDS-PAGE and electro-transferred to nitrocellulose membranes. The membranes were blocked with 5% nonfat dried milk and then incubated with primary anti-phospho-AKT (Cell Signaling Technology, Danvers, MA, USA; cat #9271S; 1:1000), anti-phospho-ERK1/2 (Cell Signaling Technology, Danvers, MA, USA; cat #9101S; 1:1000), anti-LRP1 (Cell Signaling Technology, Danvers, MA, USA; cat #64099S; 1:1000) or anti total-ERK1/2 (Cell Signaling Technology, Danvers, MA, USA; cat #91012S; 1:1000). Immunoblots were developed using Radiance, Radiance Q, and Radiance Plus chemiluminescent substrates and imaged using a BioRad ChemiDoc Imaging System (Bio-Rad, Hercules, CA, USA)."}, "[1]": {"system": "eosinophil infiltration into the lungs of mice", "assay": "OVA-induced allergic inflammation model, eosinophils in BALF by flow cytometry", "type": "in vivo, mouse", "conditions": "p=0.04", "experimental": "FIG. 15A: mice were subjected to the OVA-challenge allergic inflammation model and treated with vehicle, SP16, or A1AT during the challenge phase. The BALF was collected and analyzed for the percent of eosinophils and compared to saline (non-challenged) mice, vehicle OVA induced mice, or SP16 treated OVA induced mice.\nThe impact of SP16 treatment on eosinophilic infiltration in mice was assessed using the OVA-induced allergic inflammation model. The number of eosinophils in the bronchoalveolar lavage fluid was quantified by flow cytometry."}, "NFκB": {"system": "NFκB", "assay": "NFκB reporter assay stimulated with LPS (THP1-XBlue-MD2-GD14 reporter cells, SEAP read-out)", "type": "cell-based", "conditions": "peptide 50 μg/ml before LPS 5 ng/ml, overnight", "experimental": "The reporter cells (THP1-XBlue-MD2-GD14 cells) were treated with each peptide (50 μg/ml) before being insulted with LIPS (5 ng/ml) and incubated overnight. The NFκB inducible Secreted Embryonic Alkaline Phosphatase (SEAP) was measured in the supernatant and read for absorbance."}, "[2]": {"system": "MC903 induced atopic dermatitis and pruritis in mice", "assay": "MC903 (calcipotriol) induced AD-like inflammatory skin model, topical treatment: dermatitis score, ear volume, scratching", "type": "in vivo, mouse", "experimental": "SP16 (in 70% ethanol) was applied topically to the ears on the days of the MC903 applications (MC903+SP16). Drug vehicle (70% EtOH) was applied to control animals (MC903) and normal control animals (NC) received EtOH in place of MC903. In-life parameters: Dermatitis score (FIG. 16A) and ear volume (FIG. 16B) measured on days 0, 3, 7, 9, 11 and 14. […] Clinical Dermatitis Score (score 0-4 for each parameter)-erythema, scale/dryness, edema, excoriation/erosion (total score 0-16).\nas §1"}, "PAR2": {"system": "PAR2", "assay": "MC903 AD model, PAR2 protein expression in ears by western blot", "type": "in vivo, mouse", "conditions": "topical, vs MC903", "experimental": "as §1"}, "TSLP": {"system": "TSLP", "assay": "Poly I:C-induced TSLP production by SPINK7 knockout EPC2 cells (ELISA)", "type": "cell-based, human", "conditions": "Poly I:C 5 μg/ml, 8 hours", "experimental": "FIG. 12A: Poly I:C-induced TSLP production by SPINK7 knockout EPC2 cells (Human esophageal epithelial cells). SPINK7 KO cells and control cells were plated in high calcium and high density, for 48 hours before being treated with SP16 or 7G and Poly I:C (5 μg/ml, or untreated) for 8 hours. TSLP production in the supernatant was measured by ELISA. FIG. 12B: primary esophageal epithelial cells (EPC2) were treated with SP16 and then stimulated with IL-13, a TH2 response mediated cytokine, to induce CCL26.\nSP16 reduces several key cytokines involved in allergic responses. Upon knockout of SPINK7, esophageal epithelial cells release exacerbated levels of TSLP. TSLP is a key mediator of immune cell responses upon activation to an insult such as allergens."}, "IL-1a": {"system": "IL-1a", "assay": "OVA-challenge allergic inflammation model, IL-1a in BALF by ELISA", "type": "in vivo, mouse", "conditions": "OVA-challenge in sensitized mice, treated during challenge phase, vs vehicle", "experimental": "(§2) Mice were subjected to the OVA-challenge allergic inflammation model and treated with vehicle or SP16 during the challenge phase. The bronchoalveolar lavage fluid (BALF) was analyzed for cytokines via ELISA.\n(§3) The ova-induced model of allergic inflammation is a widely used model of eosinophilic driven allergic diseases."}, "IL-2": {"system": "IL-2", "assay": "OVA-challenge allergic inflammation model, IL-2 in BALF by ELISA", "type": "in vivo, mouse", "conditions": "OVA-challenge in sensitized mice, treated during challenge phase, vs vehicle", "experimental": "as §2, §3"}, "GAP-43 mRNA": {"system": "GAP-43 mRNA", "assay": "RT-qPCR of GAP-43 mRNA in primary cultured adult DRG neurons", "type": "cell-based, rat", "conditions": "240 nM, 24 h, vs vehicle"}}, "data": [{"sequence": "VKFNKPFVFLMIEQNTK (SP16 peptide core sequence including the LRP1 binding site; listed as Homo sapiens)", "values": [{"measurement": "IL-4 release in the skin tissue (ear lysate)", "setting": "IL-4", "result": "significantly reduced"}, {"measurement": "activation of ERK1/2 over time", "setting": "phospho-ERK1/2; 240 nM, 0-30 min", "result": "robustly activated ERK1/2 from 5 to 30 min"}, {"measurement": "lowest concentration that activated phospho-ERK1/2", "setting": "phospho-ERK1/2; 10 min, 0-240 nM", "result": 24, "unit": "nM"}, {"measurement": "activation of ERK1/2 in cells transfected with NTC siRNA", "setting": "phospho-ERK1/2; 48 h after transfection", "result": "ERK1/2 was robustly activated"}, {"measurement": "eosinophil infiltration into the lungs (eosinophils in BALF)", "setting": "[1]", "result": "reduces eosinophil infiltration into the lungs"}, {"measurement": "NFκB activity (NFκB inducible SEAP in supernatant)", "setting": "NFκB", "result": "capable of reducing NFκB activity"}, {"measurement": "disease (dermatitis score, ear volume)", "setting": "[2]; topical solution (1%) in 70% ethanol, 14-day period, vs vehicle-treated mice", "result": "significant improvement in disease vs. vehicle-treated mice"}, {"measurement": "pruritis (number of scratches over 3 minutes)", "setting": "[2]; topical, vs vehicle (MC903) treated mice", "result": "significantly reduces pruritis"}, {"measurement": "PAR2 protein expression in ears", "setting": "PAR2", "result": "PAR2 and TSLP inhibition"}, {"measurement": "Poly I:C mediated TSLP release", "setting": "TSLP", "result": "effective in significantly reducing Poly 1:C mediated TSLP and CCL26 release"}, {"measurement": "IL-1a in BALF", "setting": "IL-1a", "result": "significantly reduces IL-1a"}, {"measurement": "IL-2 in BALF", "setting": "IL-2", "result": "significantly reduces IL-2"}, {"measurement": "GAP-43 mRNA", "setting": "GAP-43 mRNA", "result": "increased GAP-43 mRNA compared to vehicle-treated neurons"}]}]}
